The values below come from patent publication US20080045584A1, “Use of Docetaxel for Treating Hepatocellular Carcinoma” (priority 1999, published 2008).

Like-named read-outs stand apart in the source and are kept apart here.

The test system of one data set is hepatocellular carcinoma. As to conditions: phase II clinical trial; cited from earlier work.
The test system of data set [1] is Hepa 1-6 cells. Nature of the data set: Flow cytometric analysis of DNA content (cell cycle, sub-G0/G1). In kind it is cell-based, murine. As to conditions: for % of apoptotic (sub-G0/G1) cells: Hepa 1-6, 24 hrs. The protocol: (§1) Lysing buffer (0.5% Triton X-100, 0.2 μg/ml Na2EDTA.2H2O, and 1% bovine serum albumin in PBS) was added to the cell pellets which were then left on ice for 15 minutes. 100% methanol pre-cooled to −20° C. was then added to the mixture, which was then centrifuged at 300×g for 5 minutes. The supernatant was discarded and the cell pellet was washed with PBS. The washed pellet was stained with a DNA staining solution (50 μg/ml propidium iodide, and 5 kunitz/ml of RNase A) for 30 minutes at 4° C. in the dark. The DNA content of each cell was measured using a Becton Dickinson FACS Calibur flow cytometer as set out below.
(§2) Cells (10000) were analyzed on a Becton Dickinson FACS Calibur flow cytometer using an argon-ion laser (15 mWatt) with incident beam at 488 nm. For PI exclusion assay, red fluorescence was collected through a 585 nm filter and the cell debris signals were removed by FSC-SSC gating. Data were acquired and analyzed using FACS/CELL Quest software on a Power Macintosh 7600/120 computer. Apoptotic cells and cells at specific cycle phases were determined by ModFit LT software.
(§3) Table 1 gives figures for cell membrane permeability of the hepatoma cells, following treatment with paclitaxel and docetaxel. Table 2 details the percentage of apoptotic (sub-G0/G1) cells found after paclitaxel and docetaxel treatment.

The subject of data set [2] is Hep 3B cells. Described as above. As to conditions: for % of apoptotic (sub-G0/G1) cells: 72 hrs. It is filed as cell-based, human. As for the experimental part:
as §1, §2, §3

Data set [3] concerns Hep G2 cells. Described as above. It is filed as cell-based, human. As to conditions: Hep G2, 1 μM, 24 hours. As for the experimental part: as §1, §2, §3
Data set [4] deals with HA22T/VGH cells. The data set is described as above. It is filed as cell-based, human. As to conditions: for % of apoptotic (sub-G0/G1) cells: 72 hrs. As for the experimental part:
as §1, §2, §3

Data set [5] concerns Hepa 1-6 cells. Briefly: Propidium iodide (PI) exclusion assay, flow cytometry. In kind it is cell-based, murine. The protocol: (§4) Cells were grown on 5-cm^2 flasks (CORNING) and treated with paclitaxel and docetaxel as set out above. Propidium iodide (10 μg/ml) was then added for 15 minutes incubation at 37° C. Then, medium was collected prior to harvest of the adherent cells. Both suspended and attached cells were collected and resuspended with 500 μl PBS for flow cytometry analysis as set out below. Debris signals were removed by FSC-SSC gating.
as §2
(§5) Data are mean±standard error of mean from duplicated sample of at least three independent experiments. Cells were treated with drugs for 24-72 hours, and membrane permeability was measured by flowcytometric analysis of propidium exclusion in viable hepatoma cells. Data are the percentage of cells with intact cell membrane as compared to control

The subject of data set [6] is Hep G2 cells. Briefly: DNA fragmentation electrophoresis analysis. It is filed as cell-based, human. As to conditions: Hep G2, 0.1 and 1 μM, 72 hours. As for the experimental part:
DNA fragmentation assessment was according to the method Herrmann et al, Nucleic Acids Res., 22, 5506-5507, 1994.
Briefly, HEP G2 cells (2×10^7) were treated for 72 hours with paclitaxel and docetaxel as set out above and centrifuged. The thus obtained cell pellets were resuspended with NP-40 lysis buffer (1% NP-40 in 20 mM EDTA, 50 mM Tris-HCl, pH 7.5). After lysis of cells for a few seconds, the supernatants were collected (5 minutes at 1600×g). The extraction was repeated with the same lysis buffer. SDS (final concentration 1%) and RNase were added (final concentration 2.5 μg/μl) to supernatants and incubated for 2 hours at 56° C. followed by digestion with proteinase K (2.5 μg/μl) for 2 hours at 37° C. Then, the mixtures were added to 10 M ammonium acetate prior to 100% ethanol precipitation for 30 minutes at −20° C. The DNA was collected by centrifugation (10 min at 12000 ×g) followed by electrophoresis on 1.5% agarose gel.
In FIG. 3, M is a 100 base pair marker. […] Lanes 2 and 3 show mean paclitaxel (0.1 and 1 μM) treatment groups. Lanes 4 and 5 show mean docetaxel (0.1 and 1 μM) treatment groups.

In data set [7] the test system is Hep 3B cells. Briefly: Propidium iodide (PI) exclusion assay, flow cytometry. It is filed as cell-based, human. As for the experimental part:
as §4, §2, §5

Data set [8] relates to Hep G2 cells. The description is as above. In kind it is cell-based, human. As for the experimental part: as §4, §2, §5
Data set [9] has as its system HA22T/VGH cells. The data set is described as above. It is filed as cell-based, human. As for the experimental part:
as §4, §2, §5

Data set [10] relates to Hep G2 cells. Briefly: Cell viability study: MTT assay. To be noted: Homo sapiens, HepG2, Hep G2, 10 μM, read-out: viability, % of control. In kind it is cell-based, human.
Method: The experiments detailed below involve human hepatoma cell lines Hep3B (ATCC designation HB 8064), HepG2 (ATCC designation HB 8065) and HA22T/VGH, and murine hepatoma cell line Hepa 1-6. These cells were cultured in DMEM (GIBCO, BRL) containing 10% fetal bovine serum (Hyclone), 0.01 mg/ml gentamycin and 0.1 mM non-essential amino acid. Cells were grown in a CO2 incubator at 37° C., with 5% CO2 and 95% filtered air.
Paclitaxel was dissolved in dimethylsulfoxide (DMSO) and docetaxel was dissolved in ethanol as stock solutions. The final concentration of vehicle was less than 0.1%.
Cells were cultured in a 96 well cell culture cluster (COSTAR) at a density of 4×10^4 cells/ml. After drug treatment for 24 hours or 72 hours, medium was discarded and replaced with an equal volume (100 μl) of fresh medium containing MTT (0.456 mg/ml; 3-[4,5-Dimethylthiazol-2-yl]2,5-diphenyl-tetrazolium bromide) and incubated for 1.5 hours at 37° C. The fresh medium was then discarded, and 100 μl DMSO was then added. Cell viability was determined by colorimetric comparison by reading OD values from a microplate reader (SPECTRA MAX250) at an absorption wavelength of 570 nm.
Data are the mean i standard error of mean from duplicate samples of three independent experiments.
In data set [11] the test system is hepatocellular carcinomas. To be noted: cited from earlier work.

Turning to `CC(=O)O[C@H]1C(=O)[C@@]2(C)[C@H]([C@H](OC(=O)c3ccccc3)[C@]3(O)C[C@H](OC(=O)[C@H](O)[C@@H](NC(=O)c4ccccc4)c4ccccc4)C(C)=C1C3(C)C)[C@]1(OC(C)=O)CO[C@@H]1C[C@@H]2O` [Paclitaxel], the “anti-cancer effect in HCC patients” value with hepatocellular carcinoma is reported as “no significant anti-cancer effect”. For the same molecule, the “effect on cell cycle progression” value is “G2/M phase arrest” in the data set with Hepa 1-6 cells [1] (Hepa 1-6, 0.1 μM and 1 μM, 24 hours); “G2/M arrest” with Hep 3B cells [2] (0.1 μM or 1 μM, 24 hours); “elevated percentage of G2/M cells” in the data set on HA22T/VGH cells [4] (increasing concentrations 0.001 μM to 1 μM, 24 hours). The cell cycle profile result with Hepa 1-6 cells [1] (Hepa 1-6, 0.1 μM and 1 μM, 72 hours) is on record as “most of the cells were dead”. Also, the “% of apoptotic (sub-G0/G1) cells” value in the data set with Hepa 1-6 cells [1] (0.01 mM (text: μM)) is reported as 24.02%; in the data set with Hepa 1-6 cells [1] (0.1 mM (text: μM)), 55.64%; in the data set with Hepa 1-6 cells [1] (1 mM (text: μM)), 64.38%; with Hep 3B cells [2] (0.1 mM (text: μM)) it was 38.37%; in the data set with Hep 3B cells [2] (1 mM (text: μM)), 47.01%; in the data set on HA22T/VGH cells [4] (0.1 mM (table head; text: μM)), 0%. Also, the “% of apoptotic (sub-G0/G1) cells” value in the data set with HA22T/VGH cells [4] (0.1 mM (table head; text: μM), listed as paclitaxel) is on record as “No significant sub-G0/G1 population”; in the data set on HA22T/VGH cells [4] (1 mM (table head; text: μM)), 0%; in the data set on HA22T/VGH cells [4] (1 mM (table head; text: μM), listed as paclitaxel), “No significant sub-G0/G1 population”. For the same molecule, the “effect on cell cycle progression (DNA histogram)” value in the data set with Hep G2 cells [3] is reported as “obvious G2/M phase arrest”. Besides, the “percentage of cells with intact cell membrane as compared to control” value (“percentage of cells” for short) with Hepa 1-6 cells [5] (Hepa 1-6, 24 hrs, 0.01 μM) turned out to be 93.17 ± 3.8%; with Hepa 1-6 cells [5] (Hepa 1-6, 24 hrs, 0.1 μM), 67.20 ± 4.4%; in the data set on Hepa 1-6 cells [5] (Hepa 1-6, 24 hrs, 1 μM) it was 62.65 ± 7.6%; with Hepa 1-6 cells [5] (Hepa 1-6, 72 hrs, 0.01 μM), 62.95 ± 5.6%; in the data set with Hepa 1-6 cells [5] (Hepa 1-6, 72 hrs, 0.1 μM) it was 27.79 ± 1.3%; with Hepa 1-6 cells [5] (Hepa 1-6, 72 hrs, 1 μM), 15.51 ± 1.0%. In addition, the “percentage of cells” value turned out to be 77.35 ± 11.7% in the data set on Hep 3B cells [7] (24 hrs, 0.01 μM); 63.50 ± 4.0% in the data set with Hep 3B cells [7] (24 hrs, 0.1 μM); 52.28 ± 4.1% with Hep 3B cells [7] (24 hrs, 1 μM); 57.00 ± 7.9% in the data set with Hep 3B cells [7] (72 hrs, 0.01 μM); 8.09 ± 2.3% with Hep 3B cells [7] (72 hrs, 0.1 μM); 1.90 ± 0.3% in the data set with Hep 3B cells [7] (72 hrs, 1 μM). Moreover, the “percentage of cells” value with Hep G2 cells [8] (Hep G2, 24 hrs, 0.01 μM) came to 93.63 ± 1.1%; with Hep G2 cells [8] (Hep G2, 24 hrs, 0.1 μM), 85.71 ± 6.8%; in the data set with Hep G2 cells [8] (Hep G2, 24 hrs, 1 μM), 66.71 ± 7.2%; in the data set on Hep G2 cells [8] (Hep G2, 72 hrs, 0.01 μM), 56.58 ± 28.7%; in the data set with Hep G2 cells [8] (Hep G2, 72 hrs, 0.1 μM), 43.79 ± 11.7%; in the data set with Hep G2 cells [8] (Hep G2, 72 hrs, 1 μM), 13.27 ± 4.3%. Also, the “percentage of cells” value with HA22T/VGH cells [9] (24 hrs, 0.01 μM) turned out to be 94.08 ± 18.6%; with HA22T/VGH cells [9] (24 hrs, 0.1 μM), 40.03 ± 7.8%; in the data set on HA22T/VGH cells [9] (24 hrs, 1 μM) it was 34.24 ± 8.3%; in the data set with HA22T/VGH cells [9] (72 hrs, 0.01 μM), 92.58 ± 21.3%; with HA22T/VGH cells [9] (72 hrs, 0.01 μM, listed as paclitaxel), 92.58%; in the data set on HA22T/VGH cells [9] (72 hrs, 0.1 μM) it was 93.38 ± 32.5%. Also, the “percentage of cells” value in the data set with HA22T/VGH cells [9] (72 hrs, 1 μM) was determined as 49.32 ± 8.3%. Besides, in the data set with Hep G2 cells [6], the “DNA fragmentation (agarose gel, FIG. 3)” value is reported as “induced DNA fragmentation”. Moreover, the figures for the viability at 10 µM with Hep G2 cells [10] (24 hours) and with Hep G2 cells [10] (72 hours) were 61.8% and 39.5%, respectively.
Take `COc1cc2c(cc1O)CC[C@@H]1[C@@H]2CC[C@]2(C)[C@@H](O)CC[C@@H]12` [2-methoxyestradiol]: the tolerability entry in data set [11] (mice, 1 month of daily treatment) is reported as “well tolerated”. In addition, the “activity against hepatocellular carcinomas” value in data set [11] (mouse, in vivo) is “active”.
